Source: ChEMBL document CHEMBL4138123, “Design, synthesis and biological evaluation of novel pyrazolochalcones as potential modulators of PI3K/Akt/mTOR pathway and inducers of apoptosis in breast cancer cells” (Eur J Med Chem, 2017)

How the values were obtained:
Assay type in all cases: functional
[1] = test system: IGROV-1; test: Cytotoxicity against human IGROV1 cells assessed as cell growth at 100 uM after 48 hrs by sulforhodamine B assay relative to control; conditions: IGROV-1, 48 h, read-out: Activity
[2] = test system: CCRF-CEM; test: Cytotoxicity against human CCRF-CEM cells assessed as cell growth at 1 uM after 48 hrs by sulforhodamine B assay relative to control; conditions: read-out: Activity
[3] = test system: NCI-H226; test: Cytotoxicity against human NCI-H226 cells assessed as cell growth at 0.01 uM after 48 hrs by sulforhodamine B assay relative to control; conditions: NCI-H226, 48 h, read-out: Activity
[4] = test system: K562; test: Cytotoxicity against human K562 cells assessed as cell growth at 10 uM after 48 hrs by sulforhodamine B assay relative to control; conditions: K562, 48 h, read-out: Activity
[5] = test system: SK-MEL-5; test: Cytotoxicity against human SK-MEL-5 cells assessed as cell growth at 0.1 uM after 48 hrs by sulforhodamine B assay relative to control; conditions: SK-MEL-5, 48 h, read-out: Activity
[6] = test system: NCI-H226; test: Cytotoxicity against human NCI-H226 cells assessed as cell growth at 10 uM after 48 hrs by sulforhodamine B assay relative to control; conditions: NCI-H226, 48 h, read-out: Activity
[7] = test system: KM12; test: Cytotoxicity against human KM12 cells assessed as growth inhibition after 48 hrs by sulforhodamine B assay; conditions: KM12, 48 h
[8] = test system: HT-29; test: Cytotoxicity against human HT-29 cells assessed as cell growth at 100 uM after 48 hrs by sulforhodamine B assay relative to control; conditions: HT-29, 48 h, read-out: Activity
[9] = test system: M14; test: Cytotoxicity against human M14 cells assessed as cell growth at 1 uM after 48 hrs by sulforhodamine B assay relative to control; conditions: M14, 48 h, read-out: Activity
[10] = test system: NCI-H460; test: Cytotoxicity against human NCI-H460 cells assessed as cell growth at 10 uM after 48 hrs by sulforhodamine B assay relative to control; conditions: NCI-H460, 48 h, read-out: Activity
[11] = test system: HL-60(TB); test: Cytotoxicity against human HL-60(TB) cells assessed as cell growth at 0.01 uM after 48 hrs by sulforhodamine B assay relative to control; conditions: HL-60, 48 h, read-out: Activity
[12] = test system: Hs-578T; test: Cytotoxicity against human Hs 578T cells assessed as growth inhibition after 48 hrs by sulforhodamine B assay
[13] = test system: COLO 205; test: Cytotoxicity against human COLO205 cells assessed as cell growth at 0.01 uM after 48 hrs by sulforhodamine B assay relative to control; conditions: COLO 205, 48 h, read-out: Activity
[14] = test system: SF-539; test: Cytotoxicity against human SF539 cells assessed as cell growth at 0.1 uM after 48 hrs by sulforhodamine B assay relative to control; conditions: SF-539, 48 h, read-out: Activity
[15] = test system: IGROV-1; test: Cytotoxicity against human IGROV1 cells assessed as cell growth at 1 uM after 48 hrs by sulforhodamine B assay relative to control; conditions: IGROV-1, 48 h, read-out: Activity
[16] = test system: HOP-62; test: Cytotoxicity against human HOP62 cells assessed as growth inhibition after 48 hrs by sulforhodamine B assay; conditions: HOP-62, 48 h
[17] = test system: OVCAR-3; test: Cytotoxicity against human OVCAR3 cells assessed as cell growth at 0.01 uM after 48 hrs by sulforhodamine B assay relative to control; conditions: OVCAR-3, 48 h, read-out: Activity
[18] = test system: RXF 393; test: Cytotoxicity against human RXF393 cells assessed as cell growth at 10 uM after 48 hrs by sulforhodamine B assay relative to control; conditions: RXF 393, 48 h, read-out: Activity
[19] = test system: UO-31; test: Cytotoxicity against human UO31 cells assessed as cell growth at 100 uM after 48 hrs by sulforhodamine B assay relative to control; conditions: UO-31, 48 h, read-out: Activity
[20] = test system: M14; test: Cytotoxicity against human M14 cells assessed as cell growth at 10 uM after 48 hrs by sulforhodamine B assay relative to control; conditions: M14, 48 h, read-out: Activity
[21] = test system: 786-0; test: Cytotoxicity against human 786-0 cells assessed as cell growth at 1 uM after 48 hrs by sulforhodamine B assay relative to control; conditions: 786-0, 48 h, read-out: Activity
[22] = test system: Malme-3M; test: Cytotoxicity against human MALME-3M cells assessed as cell growth at 1 uM after 48 hrs by sulforhodamine B assay relative to control; conditions: read-out: Activity
[23] = test system: OVCAR-8; test: Cytotoxicity against human OVCAR8 cells assessed as cell growth at 0.1 uM after 48 hrs by sulforhodamine B assay relative to control; conditions: OVCAR-8, 48 h, read-out: Activity
[24] = test system: K562; test: Cytotoxicity against human K562 cells assessed as cell growth at 100 uM after 48 hrs by sulforhodamine B assay relative to control; conditions: K562, 48 h, read-out: Activity
[25] = test system: MCF7; test: Cytotoxicity against human MCF7 cells assessed as cell growth at 0.01 uM after 48 hrs by sulforhodamine B assay relative to control; conditions: MCF7, 48 h, read-out: Activity
[26] = test system: BT-549; test: Cytotoxicity against human BT549 cells assessed as cell growth at 0.1 uM after 48 hrs by sulforhodamine B assay relative to control; conditions: BT-549, 48 h, read-out: Activity
[27] = test system: K562; test: Cytotoxicity against human K562 cells assessed as cell growth at 1 uM after 48 hrs by sulforhodamine B assay relative to control; conditions: K562, 48 h, read-out: Activity
[28] = test system: HCC 2998; test: Cytotoxicity against human HCC2998 cells assessed as growth inhibition after 48 hrs by sulforhodamine B assay; conditions: HCC 2998, 48 h
[29] = test system: CCRF-CEM; test: Cytotoxicity against human CCRF-CEM cells assessed as cell growth at 10 uM after 48 hrs by sulforhodamine B assay relative to control; conditions: read-out: Activity
[30] = test system: NCI/ADR-RES; test: Cytotoxicity against human NCI/ADR-RES cells assessed as cell growth at 1 uM after 48 hrs by sulforhodamine B assay relative to control; conditions: read-out: Activity
[31] = test system: OVCAR-3; test: Cytotoxicity against human OVCAR3 cells assessed as cell growth at 0.1 uM after 48 hrs by sulforhodamine B assay relative to control; conditions: OVCAR-3, 48 h, read-out: Activity
[32] = test system: OVCAR-3; test: Cytotoxicity against human OVCAR3 cells assessed as cell growth at 100 uM after 48 hrs by sulforhodamine B assay relative to control; conditions: OVCAR-3, 48 h, read-out: Activity
[33] = test system: UO-31; test: Cytotoxicity against human UO31 cells assessed as cell growth at 10 uM after 48 hrs by sulforhodamine B assay relative to control; conditions: UO-31, 48 h, read-out: Activity
[34] = test system: NCI-H460; test: Cytotoxicity against human NCI-H460 cells assessed as cell growth at 0.1 uM after 48 hrs by sulforhodamine B assay relative to control; conditions: NCI-H460, 48 h, read-out: Activity
[35] = test system: DU-145; test: Cytotoxicity against human DU145 cells assessed as cell growth at 0.1 uM after 48 hrs by sulforhodamine B assay relative to control; conditions: DU-145, 48 h, read-out: Activity
[36] = test system: SR; test: Cytotoxicity against human SR cells assessed as growth inhibition after 48 hrs by sulforhodamine B assay; conditions: for CC50: read-out: LC50 (the source's name)
[37] = test system: Malme-3M; test: Cytotoxicity against human MALME-3M cells assessed as cell growth at 100 uM after 48 hrs by sulforhodamine B assay relative to control; conditions: read-out: Activity

Work on `COc1ccc(C(=O)/C=C/c2cc(-c3cc(OC)c(OC)c(OC)c3)n[nH]2)cc1` yielded a growth at 100 µM [1] of -29%, a growth at 1 µM [2] of 62% and a growth at 0.01 µM [3] of 99%. The growth at 10 µM [4] was -17%, the growth at 0.1 µM [5] was 99% and the growth at 10 µM [6] was -59%. It also gave an LC50 [7] of 6.02 µM, a TGI [7] of 3.06 µM and a growth at 100 µM [8] of -19%. The growth at 1 µM [9] was 99%, the growth at 10 µM [10] was -63% and the growth at 0.01 µM [11] was 115%. For the same compound, the LC50 [12] was greater than 100 µM, the TGI [12] was greater than 100 µM and the growth at 0.01 µM [13] was 103%. It also gave a growth at 0.1 µM [14] of 99%, a growth at 1 µM [15] of 101% and an LC50 [16] of 8.07 µM. It also gave a TGI [16] of 3.77 µM, a growth at 0.01 µM [17] of 101% and a growth at 10 µM [18] of -97%. For the same compound, the growth at 100 µM [19] was -79%, the growth at 10 µM [20] was -44% and the growth at 1 µM [21] was 94%. It also gave a growth at 1 µM [22] of 93%, a growth at 0.1 µM [23] of 98% and a growth at 100 µM [24] of 1%. The growth at 0.01 µM [25] was 101%, the growth at 0.1 µM [26] was 97% and the growth at 1 µM [27] was 89%. For the same compound, the LC50 [28] was 6.48 µM, the TGI [28] was 3.4 µM and the growth at 10 µM [29] was -19%. The growth at 1 µM [30] was 90%, the growth at 0.1 µM [31] was 101% and the growth at 100 µM [32] was -69%. The growth at 10 µM [33] was -93%, the growth at 0.1 µM [34] was 102% and the growth at 0.1 µM [35] was 101%. The TGI [36] was 23.9 µM, the CC50 [36] was greater than 100 µM and the growth at 100 µM [37] was -2%.

Work on `COc1cc(C(=O)/C=C/c2cc(-c3ccc4c(c3)OCO4)n[nH]2)cc(OC)c1OC` yielded a growth at 100 µM [1] of -90%, a growth at 1 µM [2] of 83% and a growth at 0.01 µM [3] of 97%. The growth at 10 µM [4] was 3%, the growth at 0.1 µM [5] was 95% and the growth at 10 µM [6] was -41%. It also gave a GI50 [7] of 1.86 µM, an LC50 [7] of 7.97 µM and a TGI [7] of 3.85 µM. The growth at 100 µM [8] was -45%, the growth at 1 µM [9] was 96% and the growth at 10 µM [10] was -67%. The growth at 0.01 µM [11] was 99%, the GI50 [12] was 3.14 µM and the LC50 [12] was greater than 100 µM. The TGI [12] was 20.5 µM, the growth at 0.01 µM [13] was 100% and the growth at 0.1 µM [14] was 97%. The growth at 1 µM [15] was 83%, the GI50 [16] was 2.33 µM and the LC50 [16] was 24.5 µM. For the same compound, the TGI [16] was 6.24 µM, the growth at 0.01 µM [17] was 98% and the growth at 10 µM [18] was -76%. It also gave a growth at 100 µM [19] of -95%, a growth at 10 µM [20] of -4% and a growth at 1 µM [21] of 98%. For the same compound, the growth at 1 µM [22] was 83%, the growth at 0.1 µM [23] was 100% and the growth at 100 µM [24] was 5%. The growth at 0.01 µM [25] was 89%, the growth at 0.1 µM [26] was 97% and the growth at 1 µM [27] was 74%. The GI50 [28] was 2.02 µM, the LC50 [28] was 8.23 µM and the TGI [28] was 4.07 µM. For the same compound, the growth at 10 µM [29] was -26%, the growth at 1 µM [30] was 94% and the growth at 0.1 µM [31] was 100%. For the same compound, the growth at 100 µM [32] was -97%, the growth at 10 µM [33] was -96% and the growth at 0.1 µM [34] was 100%. For the same compound, the growth at 0.1 µM [35] was 99%, the GI50 [36] was 1.2 µM and the TGI [36] was 5.63 µM. The CC50 [36] was greater than 100 µM and the growth at 100 µM [37] was -91%.
